Earlier results as cited in US20250000878A1 (priority 2014, published 2025).

Columns and labels:
[1] = tested on: beta amyloid; conditions: AD transgenic mice
[2] = in vivo
[3] = tested on: patients with mild to moderate VaD; conditions: 100 mcg twice daily for 12 weeks
[4] = 0.2 mg pure huperzine A orally
[5] = tested on: patients with possible or probable AD; conditions: 0.1-0.2 mg twice daily, active group
[6] = tested on: elderly men and women

## Cn1c(=O)c2c(ncn2C)n(C)c1=O [Caffeine]
[1]
  reduction of beta amyloid deposition, entorhinal cortex: 46%
  reduction of beta amyloid deposition, hippocampus: 40%
[2]
  half life: 4 to 6 h
  time to peak blood levels: within one hour

## C/C=C1\[C@H]2C=C(C)C[C@]1(N)c1ccc(=O)[nH]c1C2 [Huperzine A]
[3]
  cognitive function: significantly improved
[4]
  terminal half life: approximately 6 hours
[5]
  proportion of patients with a four point improvement on the ADAS-cog: 56%

## C[C@]12CC[C@H](O)CC1=CC[C@@H]1[C@@H]2CC[C@]2(C)C(=O)CC[C@@H]12 [DHEA, dehydroepiandrosterone]
[6]; 50 mg per day, one year
  insulin resistance: significant improvement
[6]; 50 mg per day, one year, mean age 70 years
  reduction of visceral fat measured by MRI: about 10%
[6]; vs placebo controls
  circulating cytokines TNF alpha and IL-6: significant decrease
